Experimental data: PubChem BioAssay AID2768 (The Scripps Research Institute Molecular Screening Center, 2010)

molecular target: metallo-beta-lactamase IMP-1 (Pseudomonas aeruginosa) (UniProt Q79MP6); experiment: IMP-1 metallo-beta-lactamase inhibitor potency, late-stage follow-up, biochemical, epi-absorbance, dose response (AID 2768); settings: purified IMP-1, absorbance substrate hydrolysis
Sequence (Q79MP6 1-246): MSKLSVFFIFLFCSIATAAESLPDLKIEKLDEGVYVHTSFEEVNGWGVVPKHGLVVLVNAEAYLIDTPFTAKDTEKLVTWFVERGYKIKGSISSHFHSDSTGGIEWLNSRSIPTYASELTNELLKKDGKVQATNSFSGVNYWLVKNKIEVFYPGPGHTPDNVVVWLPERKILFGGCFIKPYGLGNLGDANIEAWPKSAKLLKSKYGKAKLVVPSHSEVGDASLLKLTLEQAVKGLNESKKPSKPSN

Compared with Cc1cc[c]([Hg+])cc1, CC(=O)Nc1cc[c]([Hg+])cc1 is 2.1-fold higher in IC50: 1810 nM for the first, 3740 nM for the second. The first is the more potent here.

Compared with O=C(O)c1cc[c]([Hg][Cl])cc1, O=C(O)c1ccc[c]([Hg+])c1 is 6.5-fold lower in IC50: 8700 nM for the first, 1330 nM for the second. The second is the more potent here.

Going from COc1cccc[c]1[Hg+] to [Hg+][c]1ccccc1, the IC50 falls from 2330 nM to 1510 nM (1.5-fold).
